Measured values taken from patent US20120136583A1, “METHOD FOR PREDICTING EFFICACY OF DRUGS IN A PATIENT” (WORLDWIDE INNOVATIVE NETWORK, priority 2009, published 2012).

Assays:
[1] = tested on: non-small cell lung carcinoma (NSCLC), cT4, N0, M1; assay: Clinical course under treatment, patient of Example 1; type: in vivo, human; conditions: Example 1 patient
[2] = tested on: primary bronchial adenocarcinoma with bilateral pulmonary metastases and asymptomatic cerebral metastases; assay: Clinical course under treatment, patient of Example 3; type: in vivo, human; conditions: Example 3 patient
Source text: A patient was diagnosized in May 2007 for a primary bronchial adenocarcinoma with bilateral pulmonary metastases and asymptomatic cerebral metastases. A surgical treatment has been carried out in November 2008 and two therapeutic lines have been used, namely thirteen cycles of cisplatin-gemcitabin for the first line and Alimta for the second one.
However, based on this score table, avastin associated with a score of 384 has been selected.

[3] = tested on: bronchial adenocarcinoma T4 with bones and pleural metastases; conditions: Example 2 patient

Row | Compound | Clinical response / disease status under treatment [2] | Clinical response / disease status under treatment [3] | also measured
1 | CCOc1cc2ncc(C#N)c(Nc3ccc(OCc4ccccn4)c(Cl)c3)c2cc1NC(=O)/C=C/CN(C)C [HKI 272] | – | – | Clinical response / disease status under treatment [1]: efficient; Time on treatment until disease progression [1]: 37 months
2 | Nc1nc2[nH]cc(CCc3ccc(C(=O)N[C@@H](CCC(=O)O)C(=O)O)cc3)c2c(=O)[nH]1 [PEMETREXED] | disease progression | – | –
3 | C#Cc1cccc(Nc2ncnc3cc(OCCOC)c(OCCOC)cc23)c1 [Tarceva] | – | inefficient and led to a rapid progression | –
4 | CCC1=C[C@@H]2CN(C1)Cc1c([nH]c3ccccc13)[C@@](C(=O)OC)(c1cc3c(cc1OC)N(C)[C@H]1[C@@](O)(C(=O)OC)[C@H](OC(C)=O)[C@]4(CC)C=CCN5CC[C@]31[C@@H]54)C2 [VINORELBINE] | – | Three months later, the disease was stable, then progressed | –
5 | BEVACIZUMAB: drug whose major target gene is VEGFA | major response | – | –
